Results taken from PubChem BioAssay AID493086 (The Scripps Research Institute Molecular Screening Center, 2011).
The source made the active and inactive calls.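 How the source made its calls: active means IC50 at or below 10 µM; inactive means IC50 above 10 µM.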

molecular target: Induced myeloid leukemia cell differentiation protein Mcl-1 (Homo sapiens) (UniProt Q07820); experiment: blockers of MCL1–BIM BH3 interaction – biochemical, fluorescence polarization, assay provider data, powder samples, late-stage follow-up (AID 493086); settings: GST-MCL1 / FITC-BIM-BH3 fluorescence polarization
Sequence (Q07820 whole entry, looked up): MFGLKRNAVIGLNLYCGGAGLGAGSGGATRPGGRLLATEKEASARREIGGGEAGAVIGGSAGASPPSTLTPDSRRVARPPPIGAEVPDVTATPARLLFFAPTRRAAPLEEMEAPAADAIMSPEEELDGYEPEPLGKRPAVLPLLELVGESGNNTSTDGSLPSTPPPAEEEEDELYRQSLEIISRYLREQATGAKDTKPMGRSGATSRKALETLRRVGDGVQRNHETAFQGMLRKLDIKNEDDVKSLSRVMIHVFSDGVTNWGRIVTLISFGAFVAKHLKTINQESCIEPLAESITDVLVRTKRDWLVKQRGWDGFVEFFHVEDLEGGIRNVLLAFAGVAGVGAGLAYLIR

Compound	IC50
COc1cccc(NC(=O)c2cc(-c3ccco3)nc3ccccc23)c1	> 20 µM (inactive)
CC(=O)N1CCN(C(=O)c2cc(-c3ccc(C)o3)nc3ccccc23)CC1	> 20 µM (inactive)
Cc1ccc(-c2cc(C(=O)N3CCN(c4ccccc4O)CC3)c3ccccc3n2)o1	> 20 µM (inactive)
CC(=O)c1cccc(NC(=O)c2cc(-c3ccco3)nc3ccccc23)c1	> 20 µM (inactive)
CCOC(=O)c1cc(-c2ccco2)nc2c1c(C)nn2-c1cccc(Cl)c1	> 20 µM (inactive)
CCCN(C(=O)c1cc(-c2ccco2)nc2ccccc12)c1c(N)n(Cc2ccccc2)c(=O)[nH]c1=O	inactive
O=C(Nc1cccc(S(=O)(=O)NC2=NCCCCC2)c1)c1cc(-c2ccco2)nc2ccccc12	> 20 µM (inactive)
COc1ccc(Cc2nnc(NC(=O)Cc3cccs3)s2)cc1OC	> 20 µM (inactive)
CCCC(=O)Nc1nnc(Cc2ccccc2)s1	> 20 µM (inactive)
COc1ccc(Cc2nnc(NC(=O)Cc3ccccc3C)s2)cc1OC	> 20 µM (inactive)
CCCCCCNC(=O)c1cc(-c2ccco2)nc2ccccc12	> 20 µM (inactive)
O=C(c1cc(-c2ccco2)nc2ccccc12)N(Cc1nnc(-c2ccc(Cl)cc2)o1)C1CC1	> 20 µM (inactive)
COCCN(C(=O)c1cc(-c2ccco2)nc2ccccc12)c1c(N)n(Cc2ccccc2)c(=O)[nH]c1=O	3.4 µM
COc1ccc(CC(=O)Nc2nnc(Cc3ccc(OC)c(OC)c3)s2)cc1	> 20 µM (inactive)
O=C(NC(=S)Nc1cccc(S(=O)(=O)NC2=NCCC2)c1)c1cc(-c2ccco2)nc2ccccc12	> 20 µM (inactive)
CCc1nnc(NC(=O)c2cc(-c3ccc(C)o3)nc3ccccc23)s1	> 20 µM (inactive)
CCOC(=O)c1cc(-c2ccco2)nc2c1c(C)nn2-c1ccccc1	> 20 µM (inactive)
Cc1ccc(-c2cc(C(=O)N3CCN(c4ccc(F)cc4)CC3)c3ccccc3n2)o1	> 20 µM (inactive)
CCOc1cc(N2CCOCC2)c(OCC)cc1NC(=O)c1cc(-c2ccco2)nc2ccccc12	> 20 µM (inactive)
CC(C)CCNC(=O)c1cc(-c2ccco2)nc2ccccc12	> 20 µM (inactive)
COc1ccc(Cc2nnc(NC(=O)Cc3sc(=S)[nH]c3C)s2)cc1OC	> 20 µM (inactive)
O=C(Nc1ccc(F)cc1F)c1cc(-c2ccco2)nc2ccccc12	> 20 µM (inactive)
COc1ccc(NC(=O)c2cc(-c3ccco3)nc3ccccc23)cc1	> 20 µM (inactive)
Cc1ccc(-c2cc(C(=O)NCCN3CCOCC3)c3ccccc3n2)o1	> 20 µM (inactive)

Compound	IC50
COc1cccc(NC(=O)CN(C)C(=O)c2cc(-c3ccco3)nc3ccccc23)c1	> 20 µM (inactive)
COc1ccc(Cc2nnc(NC(=O)Cc3ccc(-c4ccccc4)cc3)s2)cc1OC	> 20 µM (inactive)
O=C(Nc1nccs1)c1cc(-c2ccco2)nc2ccccc12	inactive
O=C(Nc1ccccc1F)c1cc(-c2ccco2)nc2ccccc12	inactive
COc1ccccc1CC(=O)Nc1nnc(Cc2ccc(OC)c(OC)c2)s1	> 20 µM (inactive)
Cc1csc(NC(=O)c2cc(-c3ccco3)nc3ccccc23)n1	inactive
CCOC(=O)C1CCCN(C(=O)c2cc(-c3ccco3)nc3ccccc23)C1 (stereo not given)	5.5 µM
Cc1cccc(NC(=O)c2cc(-c3ccco3)nc3ccccc23)n1	inactive
COc1ccc(Cc2nnc(NC(=O)Cc3c[nH]c4ccccc34)s2)cc1OC	> 20 µM (inactive)
Cc1ccc(-c2cc(C(=O)N3CC(C)OC(C)C3)c3ccccc3n2)o1 (stereo not given)	> 20 µM (inactive)
Cc1ccc(-c2cc(C(=O)Nc3cccc(S(=O)(=O)N(C)C)c3)c3ccccc3n2)o1	> 20 µM (inactive)
O=C(Nc1cccc(S(=O)(=O)NC2=NCCC2)c1)c1cc(-c2ccco2)nc2ccccc12	inactive
COc1ccc(NC(=O)c2cc(-c3ccco3)nc3ccccc23)cc1S(=O)(=O)N1CCOCC1	inactive
COc1ccc(NC(=O)CN(C)C(=O)c2cc(-c3ccc(C)o3)nc3ccccc23)cc1	> 20 µM (inactive)
O=C(NC1CC1)c1cc(-c2ccco2)nc2ccccc12	4.4 µM
Cc1nnc(NC(=O)c2cc(-c3ccco3)nc3ccccc23)s1	inactive
COc1ccc(NC(=O)c2cc(-c3ccc(C)o3)nc3ccccc23)cc1	> 20 µM (inactive)
COc1ccc(Cc2nnc(NC(=O)Cc3ccncc3)s2)cc1OC	> 20 µM (inactive)
NS(=O)(=O)c1ccc(CCNC(=O)c2cc(-c3ccco3)nc3ccccc23)cc1	> 20 µM (inactive)
CCCn1c(N)c(N(CCOC)C(=O)c2cc(-c3ccco3)nc3ccccc23)c(=O)[nH]c1=O	> 20 µM (inactive)
COc1cccc(NC(=O)c2cc(-c3ccc(C)o3)nc3ccccc23)c1	> 20 µM (inactive)
Cc1ccc(-c2cc(C(=O)Nc3ccccc3C)c3ccccc3n2)o1	> 20 µM (inactive)
COc1ccc(Cc2nnc(NC(=O)Cc3ccc4ccccc4c3)s2)cc1OC	> 20 µM (inactive)
O=C(Nc1nc2ccccc2s1)c1cc(-c2ccco2)nc2ccccc12	> 20 µM (inactive)

Compound	IC50
CCC(=O)Nc1nnc(Cc2ccccc2)s1	> 20 µM (inactive)
CN(CCOc1ccccc1)C(=O)c1cc(-c2ccco2)nc2ccccc12	> 20 µM (inactive)
Cc1ccc2nc(NC(=O)c3cc(-c4ccco4)nc4ccccc34)sc2c1	> 20 µM (inactive)
CCN(CC)CCNC(=O)c1cc(-c2ccco2)nc2ccccc12	> 20 µM (inactive)
COc1cccc(NC(=O)CN(C)C(=O)c2cc(-c3ccc(C)o3)nc3ccccc23)c1	> 20 µM (inactive)
COc1cccc(CC(=O)Nc2nnc(Cc3ccc(OC)c(OC)c3)s2)c1	> 20 µM (inactive)
Cc1ccc(-c2cc(C(=O)N3CC(C)CC(C)C3)c3ccccc3n2)o1 (stereo not given)	> 20 µM (inactive)
COc1ccc(Cc2nnc(NC(=O)C(F)c3ccccc3)s2)cc1OC (stereo not given)	> 20 µM (inactive)
CCCCN(C(=O)c1cc(-c2ccco2)nc2ccccc12)c1c(N)n(CCC)c(=O)[nH]c1=O	> 20 µM (inactive)
CN(C)C(CNC(=O)c1cc(-c2ccco2)nc2ccccc12)c1ccccc1 (stereo not given)	> 20 µM (inactive)
CCCCn1c(N)c(N(CCC(C)C)C(=O)c2cc(-c3ccco3)nc3ccccc23)c(=O)[nH]c1=O	> 20 µM (inactive)
O=C(NC1CCC(O)CC1)c1cc(-c2ccco2)nc2ccccc12 (stereo not given)	inactive
Cc1ccc(S(=O)(=O)N(C)C)cc1NC(=O)c1cc(-c2ccco2)nc2ccccc12	> 20 µM (inactive)
O=C(Nc1nncs1)c1cc(-c2ccco2)nc2ccccc12	inactive
COc1ccc(Cc2nnc(NC(=O)Cc3ccsc3)s2)cc1OC	> 20 µM (inactive)
O=C(Nc1ccccc1N1CCOCC1)c1cc(-c2ccco2)nc2ccccc12	inactive
Cc1ccc(-c2cc(C(=O)Nc3cccnc3)c3ccccc3n2)o1	inactive
COc1ccc(Cc2nnc(NC(=O)Cc3ccc(C)cc3)s2)cc1OC	> 20 µM (inactive)
COc1ccc(Cc2nnc(NC(=O)Cc3cccs3)s2)cc1	> 20 µM (inactive)
COc1ccc(Cc2nnc(NC(=O)Cc3ccc(Oc4ccccc4)cc3)s2)cc1OC	> 20 µM (inactive)
COc1ccc(Cc2nnc(NC(=O)Cc3ccccn3)s2)cc1OC	> 20 µM (inactive)
CN(CCOc1ccc(Cl)cc1)C(=O)c1cc(-c2ccco2)nc2ccccc12	> 20 µM (inactive)
O=C(CCn1nnc2ccccc21)Nc1nnc(Cc2ccc(F)cc2)s1	> 20 µM (inactive)
COC(=O)C1CCN(C(=O)c2cc(-c3ccco3)nc3ccccc23)CC1	7.3 µM

Compound	IC50
COc1ccc(Cc2nnc(NC(=O)Cc3csc4ccccc34)s2)cc1OC	> 20 µM (inactive)
CCN1CCN(C(=O)c2cc(-c3ccco3)nc3ccccc23)CC1	6.7 µM
COc1ccc(CCNC(=O)c2cc(-c3ccco3)nc3ccccc23)cc1	> 20 µM (inactive)
Cc1ccc(-c2cc(C(=O)N3CCOCC3)c3ccccc3n2)o1	> 20 µM (inactive)
COc1ccccc1NC(=O)c1cc(-c2ccc(C)o2)nc2ccccc12	> 20 µM (inactive)
COc1ccc(Cc2nnc(NC(=O)Cc3ccc4c(c3)OCO4)s2)cc1OC	> 20 µM (inactive)
Cc1ccc(NC(=O)c2cc(-c3ccc(C)o3)nc3ccccc23)cc1	> 20 µM (inactive)
COc1ccc(NC(=O)c2cc(-c3ccc(C)o3)nc3ccccc23)cc1OC	> 20 µM (inactive)
O=C(c1cc(-c2ccco2)nc2ccccc12)N1CCN(Cc2ccccc2)CC1	> 20 µM (inactive)
CCCCn1c(N)c(N(CC(C)C)C(=O)c2cc(-c3ccco3)nc3ccccc23)c(=O)[nH]c1=O	> 20 µM (inactive)
COc1ccc(Cc2nnc(NC(=O)C(=O)c3ccco3)s2)cc1OC	> 20 µM (inactive)
Cc1ccc(-c2cc(C(=O)N3CCN(c4ncccn4)CC3)c3cc(Br)ccc3n2)o1	inactive
Cc1ccc(-c2cc(C(=O)NCC(c3ccccc3)N(C)C)c3ccccc3n2)o1 (stereo not given)	> 20 µM (inactive)
COCCCN(C(=O)c1cc(-c2ccco2)nc2ccccc12)c1c(N)n(Cc2ccccc2)c(=O)[nH]c1=O	> 20 µM (inactive)
O=C(c1cc(-c2ccco2)nc2ccccc12)N1CCN(c2ccc(F)cc2)CC1	> 20 µM (inactive)
COc1ccc(NC(=O)c2cc(-c3ccc(C)o3)nc3ccccc23)c(OC)c1	> 20 µM (inactive)
Cc1ccc(-c2cc(C(=O)NCCCn3ccnc3)c3cc(Br)ccc3n2)o1	inactive
CCCCn1c(N)c(N(CCOC)C(=O)c2cc(-c3ccco3)nc3ccccc23)c(=O)[nH]c1=O	> 20 µM (inactive)
Cc1ccc(-c2cc(C(=O)Nc3nccs3)c3ccccc3n2)o1	> 20 µM (inactive)
Cc1ccc(NC(=O)c2cc(-c3ccc(C)o3)nc3ccccc23)nc1	inactive
Cc1ccc(-c2cc(C(=O)N(C)CC(=O)Nc3ccccc3Br)c3ccccc3n2)o1	> 20 µM (inactive)
Cc1ccc(-c2cc(C(=O)N3CCCC(C(F)(F)F)C3)c3ccccc3n2)o1 (stereo not given)	> 20 µM (inactive)
O=C(CCn1nnc2ccccc21)Nc1nnc(Cc2ccccc2)s1	> 20 µM (inactive)
